Laboratory results from patent US20180030500A1, “ENRICHMENT AND SELECTIVE CULTURE OF MYCOBACTERIA” (priority 2015, published 2018).
Where two headings read alike, the source gives them in different places.

How the values were obtained:
Gram-positive bacteria = conditions: 10 strains, 7 days
Mycobacteria = conditions: 20 strains, 7 days
[1] = system: Burkholderia cepacia (LMG 18821); assay: Sensitivity to C-390 in medium W; format: cell-based; parameters: key: NG: no growth; Tr: traces
Method: (§1) An evaluation of the sensitivity to C-390 of various microorganisms capable of infecting the airways was carried out. This evaluation was carried out using medium W of example 4, containing a variable concentration of C-390. Table 10 below collates the observations collected with regard to the intensity of growth of the strains tested as a function of the C-390 concentration of the medium. The abbreviations NG (“no growth”) and Tr (“traces”) signify that no growth was observed or only a few not very significant traces.

[2] = system: Burkholderia cenocepacia (672834P); assay: Sensitivity to C-390 in medium W; format: cell-based; parameters: key: NG: no growth; Tr: traces
Method: as §1

[3] = system: Burkholderia cenocepacia (LMG 18830); assay: Sensitivity to C-390 in medium W; format: cell-based; parameters: key: NG: no growth; Tr: traces; conditions: C-390 32 mg/l in medium W
Method: as §1

[4] = system: Burkholderia stabilis (716237); assay: Sensitivity to C-390 in medium W; format: cell-based; parameters: key: NG: no growth; Tr: traces
Method: as §1

[5] = system: Burkholderia anthina (20983); assay: Sensitivity to C-390 in medium W; format: cell-based; parameters: key: NG: no growth; Tr: traces
Method: as §1

[6] = system: Burkholderia cenocepacia (640328); assay: Sensitivity to C-390 in medium W; format: cell-based; parameters: key: NG: no growth; Tr: traces
Method: as §1

[7] = system: Burkholderia vietnamiensis (LMG 18835); assay: Sensitivity to C-390 in medium W; format: cell-based; parameters: key: NG: no growth; Tr: traces
Method: as §1

[8] = system: Burkholderia dolosa (LMG21820); assay: Sensitivity to C-390 in medium W; format: cell-based; parameters: key: NG: no growth; Tr: traces
Method: as §1

[9] = system: Scedosporium apiospermum (Anon); assay: Sensitivity to C-390 in medium W; format: cell-based; parameters: key: NG: no growth; Tr: traces
Method: as §1

[10] = system: Burkholderia contaminans (40007X); assay: Sensitivity to C-390 in medium W; format: cell-based; parameters: key: NG: no growth; Tr: traces
Method: as §1

[11] = system: Burkholderia multivorans (645914C); assay: Sensitivity to C-390 in medium W; format: cell-based; parameters: key: NG: no growth; Tr: traces
Method: as §1

Aspergillus flavus (ENV) = assay: Sensitivity to C-390 in medium W; format: cell-based; parameters: key: NG: no growth; Tr: traces
Method: as §1

[12] = system: Burkholderia gladioli (ENV); assay: Sensitivity to C-390 in medium W; format: cell-based; parameters: key: NG: no growth; Tr: traces
Method: as §1

[13] = system: Burkholderia cenocepacia (LMG 18832); assay: Sensitivity to C-390 in medium W; format: cell-based; parameters: key: NG: no growth; Tr: traces
Method: as §1

[14] = system: Burkholderia multivorans (672832Y); assay: Sensitivity to C-390 in medium W; format: cell-based; parameters: key: NG: no growth; Tr: traces
Method: as §1

[15] = system: Burkholderia multivorans (LMG 18822); assay: Sensitivity to C-390 in medium W; format: cell-based; parameters: key: NG: no growth; Tr: traces
Method: as §1

[16] = system: Scedosporium prolificans (Anon); assay: Sensitivity to C-390 in medium W; format: cell-based; parameters: key: NG: no growth; Tr: traces
Method: as §1

[17] = system: Burkholderia cepacia (LMG 1222); assay: Sensitivity to C-390 in medium W; format: cell-based; parameters: key: NG: no growth; Tr: traces
Method: as §1

[18] = selective agent 32 mg/l in medium L
[19] = selective agent 64 mg/l in medium L
[20] = selective agent 128 mg/l in medium L

## CCN(CC)c1ccc(C2(Cl)c3ccccc3N(c3ccccc3)c3ccccc32)cc1 [Medium C-390, 9-chloro-9-(4′-diethylamino)phenyl-9,10-dihydro-10-phenylacridine]
Gram-positive bacteria; [18]
  Number of strains having shown growth: 0
Gram-positive bacteria; [19]
  Number of strains having shown growth: 0
Gram-positive bacteria; [20]
  Number of strains having shown growth: 0
Mycobacteria; [18]
  Number of strains having shown growth: 19
  Percentage of strains having shown growth: (95%)
Mycobacteria; [19]
  Number of strains having shown growth: 19
  Percentage of strains having shown growth: (95%)
Mycobacteria; [20]
  Number of strains having shown growth: 19
  Percentage of strains having shown growth: (95%)
[1]; C-390 16 mg/l in medium W
  intensity of growth: NG
[1]; C-390 32 mg/l in medium W
  intensity of growth: NG
[2]; C-390 8 mg/l in medium W
  intensity of growth: NG
[2]; C-390 16 mg/l in medium W
  intensity of growth: NG
[2]; C-390 32 mg/l in medium W
  intensity of growth: NG
[3]
  intensity of growth: NG
[4]; C-390 4 mg/l in medium W
  intensity of growth: Tr
[4]; C-390 8 mg/l in medium W
  intensity of growth: Tr
[4]; C-390 16 mg/l in medium W
  intensity of growth: NG
[4]; C-390 32 mg/l in medium W
  intensity of growth: NG
[5]; C-390 1 mg/l in medium W
  intensity of growth: Tr
[5]; C-390 2 mg/l in medium W
  intensity of growth: NG
[5]; C-390 4 mg/l in medium W
  intensity of growth: NG
[5]; C-390 8 mg/l in medium W
  intensity of growth: NG
[5]; C-390 16 mg/l in medium W
  intensity of growth: NG
[5]; C-390 32 mg/l in medium W
  intensity of growth: NG
[6]; C-390 16 mg/l in medium W
  intensity of growth: NG
[6]; C-390 32 mg/l in medium W
  intensity of growth: NG
[7]; C-390 1 mg/l in medium W
  intensity of growth: NG
[7]; C-390 2 mg/l in medium W
  intensity of growth: NG
[7]; C-390 4 mg/l in medium W
  intensity of growth: NG
[7]; C-390 8 mg/l in medium W
  intensity of growth: NG
[7]; C-390 16 mg/l in medium W
  intensity of growth: NG
[7]; C-390 32 mg/l in medium W
  intensity of growth: NG
[8]; C-390 1 mg/l in medium W
  intensity of growth: Tr
[8]; C-390 2 mg/l in medium W
  intensity of growth: NG
[8]; C-390 4 mg/l in medium W
  intensity of growth: NG
[8]; C-390 8 mg/l in medium W
  intensity of growth: NG
[8]; C-390 16 mg/l in medium W
  intensity of growth: NG
[8]; C-390 32 mg/l in medium W
  intensity of growth: NG
[9]; C-390 2 mg/l in medium W
  intensity of growth: NG
[9]; C-390 4 mg/l in medium W
  intensity of growth: NG
[9]; C-390 8 mg/l in medium W
  intensity of growth: NG
[9]; C-390 16 mg/l in medium W
  intensity of growth: NG
[9]; C-390 32 mg/l in medium W
  intensity of growth: NG
[10]; C-390 2 mg/l in medium W
  intensity of growth: Tr
[10]; C-390 4 mg/l in medium W
  intensity of growth: NG
[10]; C-390 8 mg/l in medium W
  intensity of growth: NG
[10]; C-390 16 mg/l in medium W
  intensity of growth: NG
[10]; C-390 32 mg/l in medium W
  intensity of growth: NG
[11]; C-390 2 mg/l in medium W
  intensity of growth: NG
[11]; C-390 4 mg/l in medium W
  intensity of growth: NG
[11]; C-390 8 mg/l in medium W
  intensity of growth: NG
[11]; C-390 16 mg/l in medium W
  intensity of growth: NG
[11]; C-390 32 mg/l in medium W
  intensity of growth: NG
Aspergillus flavus (ENV); C-390 8 mg/l in medium W
  intensity of growth: NG
Aspergillus flavus (ENV); C-390 16 mg/l in medium W
  intensity of growth: NG
Aspergillus flavus (ENV); C-390 32 mg/l in medium W
  intensity of growth: NG
[12]; C-390 16 mg/l in medium W
  intensity of growth: NG
[12]; C-390 32 mg/l in medium W
  intensity of growth: NG
[13]; C-390 8 mg/l in medium W
  intensity of growth: NG
[13]; C-390 16 mg/l in medium W
  intensity of growth: NG
[13]; C-390 32 mg/l in medium W
  intensity of growth: NG
[14]; C-390 4 mg/l in medium W
  intensity of growth: Tr
[14]; C-390 8 mg/l in medium W
  intensity of growth: NG
[14]; C-390 16 mg/l in medium W
  intensity of growth: NG
[14]; C-390 32 mg/l in medium W
  intensity of growth: NG
[15]; C-390 4 mg/l in medium W
  intensity of growth: NG
[15]; C-390 8 mg/l in medium W
  intensity of growth: NG
[15]; C-390 16 mg/l in medium W
  intensity of growth: NG
[15]; C-390 32 mg/l in medium W
  intensity of growth: NG
[16]; C-390 0.5 mg/l in medium W
  intensity of growth: NG
[16]; C-390 1 mg/l in medium W
  intensity of growth: NG
[16]; C-390 2 mg/l in medium W
  intensity of growth: NG
[16]; C-390 4 mg/l in medium W
  intensity of growth: NG
[16]; C-390 8 mg/l in medium W
  intensity of growth: NG
[16]; C-390 16 mg/l in medium W
  intensity of growth: NG
[16]; C-390 32 mg/l in medium W
  intensity of growth: NG
[17]; C-390 2 mg/l in medium W
  intensity of growth: Tr
[17]; C-390 4 mg/l in medium W
  intensity of growth: NG
[17]; C-390 8 mg/l in medium W
  intensity of growth: NG
[17]; C-390 16 mg/l in medium W
  intensity of growth: NG
[17]; C-390 32 mg/l in medium W
  intensity of growth: NG
